Patent US20050215531A1, “Use of edg receptor binding agents in cancer” (priority 2002, published 2005)

Legend:
[1] = system: S1P- or VEGF-induced growth of vascularized tissue around the chamber; test: Antiangiogenic activity, subcutaneous porous chamber (S1P or VEGF) in mice; format: in vivo; conditions: once a day for 4 days; Compound A orally 0.3, 3, 30 or 50 mg/kg; Compound C enantiomers i.v. 2.5 mg/kg
Experimental: Porous chambers containing (I) sphingosine-1-phosphate (5 μM/chamber) or (ii) human VEGF (1 μg/chamber) in 0.5 ml of 0.8% w/v agar (containing heparin, 20 U/ml) are implanted subcutaneously in the flank of mice. S1P or VEGF induces the growth of vascularized tissue around the chamber. This response is dose-dependent and can be quantified by measuring the weight and blood content of the tissue. Mice are treated once a day (i) orally with Compound A (0.3, 3, 30 or 50 mg/kg) or (ii) intravenously with the R enantiomer of Compound C (2.5 mg/kg) or (iii) intravenously with the S enantiomer of Compound C (2.5 mg/kg) or (iv) orally or intravenously with vehicle (5% glucose, 10 ml/kg), starting 4-6 hours before implantation of the chambers and continuing for 4 days. The animals are sacrificed for measurement of the vascularized tissues 24 h after the last dose. The weight and blood content of the vascularized tissues around the chamber is determined. Animals treated with Compound A or with the R or S enantiomer of Compound C show reduced weight and/or blood content of the vascularized tissues compared to animals treated with vehicle alone.

HUVEC = test: In vitro angiogenesis (tube formation) assay on Matrigel; format: cell-based, human
Experimental: (§1) Human umbilical vein endothelial cells (HUVEC) are cultured at 37° C. and 5% CO2 in medium M199 supplemented with 20% SCS (HyClone, Logan, Utah), 1 U/ml heparin, 50 μg/ml ECGS, 2 mM glutamine, 100 U/ml penicillin and 0.1 mg/ml streptomycin. Cells are used for experiments up to passage number 5. Short-starved HUVEC are obtained by starving with 1% SCS-containing M199 for 5 h. Recombinant human VEGF165 is obtained from PromoCell (Heidelberg, Germany). Phospho-specific ERK½, p3B kinase polyclonal antibodies, nonphospho ERK½ antibodies and LumiGLO chemiluminescent reagent are from New England BioLabs (Beverly, Mass.), polyclonal IKB antibodies from Santa Cruz Biotechnology (Santa Cruz, Calif.). Peroxidase-conjugated donkey anti-rabbit immunoglobulin G (IgG) and sheep anti-mouse IgG are purchased from Amersham LIFE SCIENCE (Amersham Place, England). lmmobilon-P transfer membranes are products of Millipore (Bedford, Mass.). S is obtained from Sigma Chemical Co.; S1P is from Biomol. Compound A-phosphate stock solution is prepared by the following protocol. Compound A-phosphate is dissolved in methanol tracing with concentrated HCl (0.5 mg Compound A-phosphate in 500 μl of methanol plus 2 μl of HCl). Solvent from the resulting solution is evaporated under vacuum and the residue obtained is redissolved (variant 1) in 0.1% of defatted BSA solution in sterile deionized water (500 μl) or (variant 2) in 0.5% Triton X-100 in deionized water. The resulting stock solutions (2.5 mM) are sonicated and stored at 4° C.
Morphogenesis of endothelial cells into capillary-like structures on Growth Factor Reduced Matrigel Matrix (BD Bioscience) is performed according to the manufacture procedure. Briefly, HUVEC are trypsinized, resuspended in serum-free Ml 99 medium containing soybean trypsin inhibitor (1 mg/ml, Sigma). After centrifugation cells are resuspended in serum-free medium at a density 0.5×10^5 cells/ml, and cell suspension is seeded in 96-well cell culture plates (Costar, Corning Incorporated) precoated with 50 μl of Matrigel in the absence or presence of various stimuli: VEGF at 1.5 nM, S1P at 0.1-2 μM, S at 0.5-2 μM, Compound A at 0.5-2 μM, and Compound A-phosphate at 0.1-2 μM. Eight hours later, cells on Matrigel are fixed with 3% formaldehyde in PBS and kept at 4° C. Results are quantitated from images made with a Nikon Diaphot microscope equipped with a cooled CCD camera (Kappa GmbH, Gleichen, Germany) by direct counting of branching points on two microscopic fields from each well done in duplicates.
The effect of Compound A and Compound A-phosphate on morphogenic differentiation of endothelial cells is determined using an in vitro angiogenesis assay on Matrigel. Endothelial cell morphogenesis is a complex process that requires cell-extracellular matrix interactions, followed by matrix remodelling, stimulated migration, cell-cell interactions, and perivascular proteolysis. […] This may be interpreted as a possible involvement of EDG-1 (S1P1) receptor-mediated signaling events in Compound A-phosphate-stimulated bioresponses (see e.g. FIG. 3). […] Importantly, high concentrations of S and Compound A (2-5 μM) inhibited VEGF-triggered tube formation.

ERK½ MAP kinases = test: Western blot, activation of ERK½ MAP kinases in HUVEC; format: cell-based, human; conditions: endothelial cells, 5 minute to 60 minute treatment
Experimental: as §1
After various treatments, the cells are washed twice with cold PBS, lysed in 100 μl of Laemmli buffer, scraped and heated for 5 min at 95° C. Total cell lysates are separated by SDS-PAGE and transferred to Immobilon-P membrane. The membrane is blocked for 30 minutes with PBS containing 0.1% Tween-20 and 3% skim milk and incubated for 1 hour at RT with a primary antibody diluted in blocking buffer. The membrane obtained is washed three times for 5 minutes with PBS containing 0.1% Tween-20 and incubated with peroxidase-conjugated secondary antibody for 1 hour at RT. After a washing step, the membrane is incubated for 1 minute with ECL reagent and exposed to film as required. For reprobing with another antibody, the membrane is washed twice in PBS, stripped for 30 min at 55° C. with stripping buffer (62.5 mM Tris-HCL, pH 6.8, 2% SDS, 100 mM 2-mercaptoethanol) and washed three times for 5 minutes with PBS at RT. The membrane is stored wet wrapped in SaranWrap at 4° C. after each immunodetection.
Signal transduction via MAP idnases plays a key role in a variety of endothelial cell functions. Treatment of HUVEC with Compound A-phosphate at 0.5 μM may result in transient activation of ERK½ with a peak of phosphorylation/activation at 10 minutes and returning to baseline by 20 minutes (see e.g. FIG. 5). No activation of p38 kinase and JNK½ by Compound A-phosphate is detectable in HUVEC. […] To estimate the possible role of inflammatory/NFκB-dependent program in Compound A-phosphatestimulated bioresponses of endothelial cells, the membranes are reprobed with anti-IκB antibodies. IκB levels are not affected by Compound A-phosphate treatment.

tissue factor = test: Clotting assay, tissue factor activity on HUVEC; format: cell-based, human
Experimental: as §1
Cells are seeded in 6-well plates at 80-90% confluency and grown overnight. Cells are scraped from the plates and analyzed for tissue factor activity according to the method as described in Clauss, M., J. Biol. Chem. 271,17629-17634 (1996), Mechtcheriakova, D., Blood 93,3811-3823 (1999). Briefly, after induction for 4 hours with VEGF (1.5 nM), TNF-α (100 U/ml), S (0.5-2 μM), S1P (0.5-2 μM), Compound A (0.5-2 μM), and Compound A-phosphate (0.5-2 μM), cells are washed twice and then scraped in 1 ml clotting buffer (12 mM sodium acetate, 7 mM diethylbarbitate and 130 mM sodium chloride; pH 7.4). 50 μl of resuspended cells are mixed with 50 μl of citrated plasma, and clotting times are determined after recalcfication with 50 μl of 20 mM CaCl2 solution at 37° C. TF-equivalents are determined by using a standard curve obtained from rabbit brain thromboplastin.
An important characteristic feature of both classical inflammatory stimulus TNF-α and the main angiogenic growth factor VEGF on endothellal cells is their potency to upregulate tissue factor. Compound A, Compound A-phosphate, S or S1P are tested whether they also do induce tissue factor on HUVEC. […] The data obtained together indicate that Compound A, Compound A-phosphate, S and S1P mechanistically work distinctly to anglogenic VEGF and inflammatory TNF-α.

[2] = Acute toxicity p.o. in rats
[3] = Acute toxicity p.o. in monkeys
[4] = system: mouse breast cancer cell line JygMC(A); test: In vitro antitumor activity: proliferation of synchronised mouse breast cancer cells; format: cell-based; conditions: hydrochloride salt form, Coulter counter and SRB colorimetric assay
Experimental: A mouse breast cancer cell line originally isolated from mammary carcinomas is used, e.g. JygMC(A). The cell number is adjusted to 5×10^5 for plating in fresh medium before the procedure. Cells are incubated with fresh medium containing 2.5 mM of thymidine without FCS for 12 h and then washed twice with PBS, followed by addition of fresh medium with 10% FCS and additionally incubated for another 12 h. Thereafter the cells are incubated with fresh medium containing 2.5 mM of thymidine without FCS for 12 h. To release the cells from the block, the cells are washed twice with PBS and replated in fresh medium with 10% FCS. After synchronisation the cells are incubated with or without various concentrations of a compound of formula I for 3, 6, 9, 12, 18 or 24 h. The cells are harvested after treatment with 0.2% EDTA, fixed with ice-cold 70% ethanol solution, hydrolyzed with 250 μg/ml of RNaseA (type 1-A: Sigma Chem. Co.) at 37° C. for 30 mn and stained with propidium iodide at […] for 20 mn. After the incubation period, the number of cells is determined both by counting cells in a Coulter counter and by the SRB colorimetric assay. Under these conditions an S1P agonist, e.g. Compound B in hydrochloride salt form, inhibits the proliferation of the tumor cells at concentrations ranging from 10^−12 to 10^−6 M.

[5] = system: human A375 melanoma cells; test: In vivo antitumor activity, A375 melanoma transplanted into BALB/c-nu/nu mice; conditions: hydrochloride salt form, 0.5 to 5 mg/kg, 2 week treatment
Excerpt: Antitumor activity is expressed as T/C% (mean increase in tumor volumes of treated animals divided by the mean increase of tumor volumes of control animals multiplied by 100).
Aliquots of cancer cells (1×10^7), e.g. human A375 melanoma cells, are transplanted into BALB/c-nu/nu mice. When the tumors have reached ca. 10×10 mm in size, the animals are assigned randomly to four subgroups and the treatment with a compound of formula I is initiated. Animals are sacrificed after 2 week treatment, at which times tumors and tissues are harvested and prepared for morphological and molecular analysis. The size of the tumors is determined with a caliper.

Compound | weight and/or blood content of the vascularized tissues compared to vehicle [1] | effect on capillary-like network formation (HUVEC; 0.5-1 μM) | effect on VEGF-mediated remodelling (HUVEC; 0.5-1 μM, with VEGF) | effect on VEGF-triggered tube formation (HUVEC; high concentrations, 2-5 μM) | MAP kinase activation (ERK½ MAP kinases) | effect on TNF-α-induced tissue factor (tissue factor; TNF-α 100 U/ml) | effect on VEGF-induced tissue factor (tissue factor; VEGF 1.5 nM) | tissue factor activity (tissue factor; compound alone or in combinations, 0.5-2 μM, 4 hours) | acute LD60 [2] [mg/kg] | acute LD60 [3] [mg/kg] | concentrations at which the proliferation of the tumor cells is inhibited [4] | tumor growth vs saline control [5]
CCCCCCCOc1ccc(CCC(C)(N)CO)cc1 (stereo not drawn) [R enantiomer of Compound C, 2-amino-4-(4heptyloxyphenyl)-2-methyl-butanol] | reduced | – | – | – | – | – | – | – | – | – | – | –
CCCCCCCCc1ccc(CCC(N)(CO)CO)cc1.Cl [Compound A, 2-amino-2-[2-(4-octylphenyl)ethyl]propane-1 ,3-diol] | reduced | weak, in comparison to Compound A-phosphate, but consistent enhancing effect | does not attenuate | inhibited | Neither Compound A nor S are able to induce MAP kinase activation | not TNF-α-induced | slightly enhance | none of these compounds alone or in combinations may elevate tissue factor activity | > 10 | > 10 | – | –
NC(CO)(CO)CCc1ccc(C(=O)CCCCc2ccccc2)cc1 [Compound B, 2-amino-2-{2-[4-(1-oxo-5-phenylpentyl)phenyl]ethyl}propane-1,3-diol] | – | – | – | – | – | – | – | – | – | – | 10^−12 to 10^−6 M | slows tumor growth
